Experimental data as given in paper PMC7367283, “A PIP2 substitute mediates voltage sensor-pore coupling in KCNQ activation” (Communications Biology, 2020).
Several values for one entry are separate records, joined by “and”; a condition that tells them apart may be missing. Equal entries are not always repeated.

Biological target: T1, IKs current (Chromanol 293B sensitive current) (Cavia porcellus, UniProt O70344)
T1 construct: Single ventricular myocytes were acutely enzymatically isolated from guinea pig heart; endogenous in cells; host or cells: freshly isolated guinea pig ventricular myocytes
T1 sequence (O70344 1-671): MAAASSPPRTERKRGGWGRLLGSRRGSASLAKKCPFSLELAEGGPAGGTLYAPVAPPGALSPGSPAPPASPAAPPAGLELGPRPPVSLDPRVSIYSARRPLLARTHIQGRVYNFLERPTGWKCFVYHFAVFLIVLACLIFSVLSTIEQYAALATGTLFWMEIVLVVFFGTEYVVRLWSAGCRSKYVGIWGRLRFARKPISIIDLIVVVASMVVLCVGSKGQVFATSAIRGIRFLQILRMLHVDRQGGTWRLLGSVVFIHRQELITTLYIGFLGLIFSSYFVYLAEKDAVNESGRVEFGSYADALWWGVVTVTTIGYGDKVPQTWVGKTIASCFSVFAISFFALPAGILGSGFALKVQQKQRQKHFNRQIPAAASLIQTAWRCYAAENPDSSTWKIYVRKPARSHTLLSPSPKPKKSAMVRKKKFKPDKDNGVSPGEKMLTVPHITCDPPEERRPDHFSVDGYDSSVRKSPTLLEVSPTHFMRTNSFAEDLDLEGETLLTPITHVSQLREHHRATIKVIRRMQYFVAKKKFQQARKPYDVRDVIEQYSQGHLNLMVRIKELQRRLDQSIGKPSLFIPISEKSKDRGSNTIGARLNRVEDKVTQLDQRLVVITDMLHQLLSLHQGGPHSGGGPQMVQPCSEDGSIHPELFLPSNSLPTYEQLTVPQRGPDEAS
Test: IKs measurements in isolated ventricular cells (whole-cell patch clamp);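 for IKs current against voltage, source data Fig. 7d: tail currents measured at the -20 mV return potential after each test voltage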
Assay type: cell-based, guinea pig
Design: key to IKs current against time, source data Fig. 7b: IKs current normalized to cell capacitance (current density)
Settings: for IKs current against voltage, source data Fig. 7d / IKs current against time, source data Fig. 7b: individual cells
Text: The KCNQ1 and KCNE1 complex forms the cardiac IKs channel, which is important in terminating cardiac action potentials and regulating heart rate[1],[2],[13]. We tested if CP1 modulates the IKs channel in cardiac myocytes. Similar to the results from KCNQ1 + KCNE1 expressed in Xenopus oocytes, in guinea pig ventricular myocyte CP1 enhanced IKs current (Chromanol 293B sensitive current) amplitude (Fig. 7a–c), shifted the G–V relation to more negative voltages (Fig. 7d, e), and slowed the kinetics of deactivation (Fig. 7a).
Fig. 7 Effects of CP1 on IKs and action potentials in cardiomyocytes. a IKs currents in guinea pig ventricular myocytes in the absence and presence of 30 µM CP1 in the whole-cell patch-clamp configuration. Holding potential: −40 mV; testing potentials: −20 to +60 mV with 10-mV increment; returning potential: −20 mV. […] Guinea pig ventricular myocytes were first perfused with 10 µM CP1 and 10 µM chromanol. After APD reached steady state, 10 µM CP1 was constitutively perfused alone. Last, CP1 was washed out for near-full reversal of APD shortening. g Effects of 0.2 µM CP1 on LQT action potentials. To mimic the LQT, 100 µM moxifloxacin was applied 2 h before the treatment of CP1. h Change of action potential duration after application of different [CP1]s (n = 5–7). Tukey–Kramer ANOVA test was used to compare control cells in different CP1 concentration, # is significant at P < 0.05. Unpaired two-tailed Student t tests were used to compare control and moxifloxacin cells at different CP1 concentration: * is significant at P < 0.05.
The use of guinea pigs was approved by the Stony Brook University Institutional Animal Care and Use Committee. Single ventricular myocytes were acutely enzymatically isolated from guinea pig heart as previously described. Guinea pigs, weighing 300–500 g, were sacrificed by peritoneal injection of sodium pentobarbitone (1 ml, 390 mg/ml). The isolated cells were stored in KB solution containing (in mM) 83 KCl, 30 K2HPO4, 5 MgSO4, 5 Na pyruvate, 5 β-OH-butyric acid, 20 creatine, 20 taurine, 10 glucose, and 0.5 EGTA, pH 7.2.
An Axopatch 1D amplifier (Axon Instruments, Inc.) and the whole-cell patch-clamp technique were used to measure the IKs current. The patch pipette solution contained (in mM) 140 KMeSO3, 20 HEPES, 2 KCl, 5 EGTA, and 5 MgATP, pH 7.4. The external Tyrode contains (in mM) 137.7 NaCl, 2.3 NaOH, 8 KCl, 1 MaCl2, 5 HEPES, 1 CdCl2, and 10 Glucose, pH 7.4. The cells were held at −40 mV and stepped to −20 mV, then to +60 mV with an increment of 10 mV, to measure the membrane current in the absence and the presence of chromanol 293B (10 μM). The chromanol 293B sensitive current was defined as the IKs current normalized to its cell capacitance. These experimental protocols and conditions eliminate most of the other membrane currents, such as IP, INa, ICa, and INa/Ca, except IK, so that we could obtain better experiment resolution.
Electrophysiology data were processed with IGOR (Wavemetrics, Lake Oswego, OR), Clampfit (Molecular Devices, Sunnyvale, CA), and SigmaPlot (SPSS, Inc., San Jose, CA). Normalized tail currents were plotted versus prepulse voltage and fitted with the Boltzmann function G = G0 + 1/(1 + exp(V − V1/2)/S), where G0 is the minimum conductance, V1/2 is the half-maximal voltage of activation, and S is the slope factor. Dose–response curves in Fig. 3 were fitted with the Hill equation, E = […], where EC50 is the drug concentration producing the half-maximum response and P is the Hill coefficient. In Fig. 7c, e, the EC50 values were obtained by fitting the data to IKs = IMin + (IMax − IMin) ([CP1]/([CP1] + EC50)) and V1/2 = V1/2 min + (V1/2Max − V1/2 min) ([CP1]/([CP1] + EC50)). The deactivation time course was fitted with single-exponential function. All data are expressed as mean ± SEM (n ≥ 3 or otherwise indicated). […]

O=S(=O)([O-])Oc1c(-c2sc3c(ccc4cccc(Cl)c43)c2OS(=O)(=O)[O-])[nH]c2ccc(Br)cc12.[Na+].[Na+] [CP1, DISODIUM 5-BROMO-2-[9-CHLORO-3-(SULFONATOOXY) NAPHTHO [1,2-B] THIEN-2-YL]-1H-INDOL-3-YL SULFATE]
IKs current against voltage, source data Fig. 7d (0.2 µM CP1, V 0 mV): 0.1478 and -0.1008 and 0.4867 and 0.5994 and 0.4202 and 0.2428 | IKs current against voltage, source data Fig. 7d (0.2 µM CP1, V 10 mV): 0.1364 and -8.00E-03 and 0.5359 and 0.687 and 0.4359 and 0.4419 | IKs current against voltage, source data Fig. 7d (0.2 µM CP1, V 20 mV): 0.5204 and 0.1788 and 0.7643 (2×) and 0.8582 and 0.5444 | IKs current against voltage, source data Fig. 7d (0.2 µM CP1, V 30 mV): 0.487 and 0.358 and 1.0844 and 1.2573 and 1.0686 and 0.7892 | IKs current against voltage, source data Fig. 7d (0.2 µM CP1, V 40 mV): 1.432 and 0.5726 and 1.6914 and 1.171 and 1.2536 and 1.1694 | IKs current against voltage, source data Fig. 7d (0.2 µM CP1, V 50 mV): 1.7002 and 1.1486 and 1.9537 (2×) and 1.6685 and 1.6372 | IKs current against voltage, source data Fig. 7d (0.2 µM CP1, V 60 mV): 2.1519 and 1.35 and 2.301 (2×) and 1.8192 and 1.8132 | IKs current against voltage, source data Fig. 7d (0.2 µM CP1, V -10 mV): 0.058 and -0.1764 and 0.4431 and 0.2854 and 0.2431 and 0.2625 | IKs current against voltage, source data Fig. 7d (0.2 µM CP1, V -20 mV): -0.0553 and -0.0272 and 0.3362 and 0.2344 and 0.1098 and 0.1296 | IKs current against time, source data Fig. 7b (0.2 µM CP1, time 0.5 s): -0.15 and 2.22E-03 and 0.4227 and 0.5059 and 0.5369 and 0.8337 | IKs current against time, source data Fig. 7b (0.2 µM CP1, time 1.5 s): 1.1736 and 1.2252 and 1.6869 and 1.7762 and 1.8153 and 1.921 | IKs current against time, source data Fig. 7b (0.2 µM CP1, time 2.5 s): 2.3476 and 2.2614 and 2.5619 and 2.5792 and 2.5781 and 2.9902 | IKs current against time, source data Fig. 7b (0.2 µM CP1, time 3.5 s): 4.1533 and 3.1046 and 3.3699 and 3.1301 and 3.5796 and 4.2972 | IKs current against time, source data Fig. 7b (0.2 µM CP1, time 4.5 s): 4.9536 and 3.6388 and 3.9362 and 3.649 and 4.0225 and 4.5344 | IKs current against voltage, source data Fig. 7d (6 µM CP1, V 0 mV): 0.1828 and 0.4288 and 0.6932 and 0.8299 and 0.4703 and 1.0496 | IKs current against voltage, source data Fig. 7d (6 µM CP1, V 10 mV): 0.4205 and 0.6933 and 0.9149 and 1.2568 and 0.6403 and 1.5345 | IKs current against voltage, source data Fig. 7d (6 µM CP1, V 20 mV): 0.8957 and 1.1412 and 1.496 and 1.8852 and 1.1797 and 2.1199 | IKs current against voltage, source data Fig. 7d (6 µM CP1, V 30 mV): 2.1345 and 1.6765 and 2.1151 and 2.7982 and 1.9302 and 2.5318 | IKs current against voltage, source data Fig. 7d (6 µM CP1, V 40 mV): 3.0845 and 2.1666 and 2.3348 and 3.4682 and 2.4976 and 3.0115 | IKs current against voltage, source data Fig. 7d (6 µM CP1, V 50 mV): 3.95 and 2.5666 and 2.4371 and 4.0362 and 3.2962 and 3.3006 | IKs current against voltage, source data Fig. 7d (6 µM CP1, V 60 mV): 4.0182 and 2.7319 and 3.0293 and 4.3101 and 3.6782 and 3.5497 | IKs current against voltage, source data Fig. 7d (6 µM CP1, V -10 mV): 0.0746 and 0.3017 and 0.5691 and 0.6051 | IKs current against time, source data Fig. 7b (6 µM CP1, time 0.5 s): 2.2824 and 1.9027 and 1.3849 and 1.6373 and 2.0899 and 2.4967 | IKs current against time, source data Fig. 7b (6 µM CP1, time 1.5 s): 5.0013 and 4.6878 and 3.7768 and 4.1793 and 4.2368 and 4.8342 | IKs current against time, source data Fig. 7b (6 µM CP1, time 2.5 s): 7.088 and 6.1654 and 5.3805 and 5.9272 and 5.6946 and 5.9483 | IKs current against time, source data Fig. 7b (6 µM CP1, time 3.5 s): 7.9334 and 7.0333 and 6.1833 and 7.248 and 6.5654 and 6.4263 | IKs current against time, source data Fig. 7b (6 µM CP1, time 4.5 s): 8.5672 and 7.9674 and 7.2346 and 7.483 and 7.0133 and 6.9913 | IKs current against time, source data Fig. 7b (30 µM CP1, time 0.5 s): 7.2666 and 7.1831 and 9.1229 and 4.6448 and 5.4151 and 6.3301 and 8.2811 | IKs current against time, source data Fig. 7b (30 µM CP1, time 1.5 s): 8.5502 and 9.0214 and 10.3674 and 6.9314 and 7.3351 and 7.6047 and 9.524 | IKs current against time, source data Fig. 7b (30 µM CP1, time 2.5 s): 9.051 and 9.8065 and 11.122 and 8.4037 and 8.6405 and 8.1616 and 9.9386 | IKs current against time, source data Fig. 7b (30 µM CP1, time 3.5 s): 9.3536 and 10.9247 and 11.9708 and 9.4071 and 9.5173 and 8.9351 and 10.1733 | IKs current against time, source data Fig. 7b (30 µM CP1, time 4.5 s): 10.006 and 11.718 and 12.1269 and 10.5686 and 10.3666 and 9.5544 and 10.5156 | EC50 (at +60 mV, read-out: EC50 of IKs current amplitude): 7.54 µM
